In patent US20230050398A1, “METHODS FOR INCREASING SHELF-LIFE OF OPHTHALMIC PHARMACEUTICAL COMPOSITIONS” (Harrow IP, LLC, priority 2021, published 2023):

What was measured:
Format in all cases: physicochemical
[1] = Stability of ophthalmic pharmaceutical composition of Example 1: amount of active ingredient by UHPLC; conditions: Example 1 composition; for Pass/Fail: 25° C., acceptance 90-110% of label claim (bromfenac, moxifloxacin), 90-115% (prednisolone acetate); for % Label Claim / Amount Found: stored at 25° C.
Description: The stability of an ophthalmic pharmaceutical composition made by the method of the present disclosure was studied and confirmed by the Compounder's International Analytical Laboratory. The data collected included the concentration of the active ingredients in the composition, the pH, and the appearance, color, and odor of the composition. The amount of active ingredient in the ophthalmic pharmaceutical composition was determined by ultra high performance liquid chromatography (UHPLC). The composition was stored at 25° C. The composition comprised the active ingredients bromfenac, moxifloxacin, and prednisolone acetate. The composition was considered stable if it contained 90-110% of the label claim of bromfenac and moxifloxacin and 90-115% of the label claim of prednisolone acetate.
A sample of the composition was provided on Jul. 31, 2020. […] 21, 2020.

[2] = Stability of comparator composition (Example 3): amount of active ingredient by UHPLC; conditions: for Pass/Fail: 25° C., acceptance 90-110% of label claim (bromfenac, moxifloxacin), 90-115% (prednisolone acetate); for % Label Claim (Potency) / Amount Found: stored at 25° C.
Description: The data collected included the concentration of the active ingredients in the composition. The amount of active ingredient in the composition was determined by ultra high performance liquid chromatography (UHPLC). The comparator composition was stored at 25° C. The composition comprised the active ingredients bromfenac, moxifloxacin, and prednisolone acetate.
A sample of the composition was provided on Nov.

[3] = Stability of ophthalmic pharmaceutical composition of Example 2: amount of active ingredient by UHPLC; conditions: Example 2 composition; for Pass/Fail: 25° C., acceptance 90-110% of label claim (bromfenac, moxifloxacin), 90-115% (prednisolone acetate); for % Label Claim / Amount Found: stored at 25° C.
Description: The stability of an ophthalmic pharmaceutical composition made by the method of the present disclosure was studied and confirmed by the Compounder's International Analytical Laboratory. The data collected included the concentration of the active ingredients in the composition, the pH, and the appearance, color, and odor of the composition. The amount of active ingredient in the ophthalmic pharmaceutical composition was determined by ultra high performance liquid chromatography (UHPLC). The composition was stored at 25° C. The composition comprised the active ingredients bromfenac, moxifloxacin, and prednisolone acetate. The composition was considered stable if it contained 90-110% of the label claim of bromfenac and moxifloxacin and 90-115% of the label claim of prednisolone acetate. pH was determined according to USP 791, incorporated by reference herein. Additionally, the container enclosure was tested at baseline according to USP 1207 and 381, incorporated by reference herein. No blue dye was observed via UV-Vis spectrophotometry.
A sample of the composition was provided on May 28, 2021. […] 7, 2021.

Nc1c(CC(=O)O)cccc1C(=O)c1ccc(Br)cc1 [Bromfenac, bromfenac]
Pass/Fail ([1]; after 90 days): Pass
Pass/Fail ([1]; after 120 days): Pass
Pass/Fail ([1]; after 180 days): Pass
Pass/Fail ([1]; after 210 days): Pass
Pass/Fail ([1]; after 270 days): Pass
Pass/Fail ([1]; baseline): Pass
% Label Claim ([1]; after 90 days): 98.3%
Amount Found ([1]; after 90 days): 0.07373%
% Label Claim ([1]; after 120 days): 100.8%
Amount Found ([1]; after 120 days): 0.07559%
% Label Claim ([1]; after 180 days): 105.6%
Amount Found ([1]; after 180 days): 0.07917%
% Label Claim ([1]; after 210 days): 101.6%
Amount Found ([1]; after 210 days): 0.0762%
% Label Claim ([1]; after 270 days): 97.5%
Amount Found ([1]; after 270 days): 0.07312%
% Label Claim ([1]; baseline): 107.0%
Amount Found ([1]; baseline): 0.08023%
Pass/Fail ([2]; after 30 days): Pass
Pass/Fail ([2]; after 60 days): Pass
Pass/Fail ([2]; after 90 days): Fail
Pass/Fail ([2]; after 120 days): Fail
Pass/Fail ([2]; after 150 days): Fail
Pass/Fail ([2]; after 180 days): Fail
Pass/Fail ([2]; baseline): Pass
% Label Claim (Potency) ([2]; after 30 days): 94.9%
Amount Found ([2]; after 30 days): 0.071%
% Label Claim (Potency) ([2]; after 60 days): 92.2%
Amount Found ([2]; after 60 days): 0.0692%
% Label Claim (Potency) ([2]; after 90 days): 87%
Amount Found ([2]; after 90 days): 0.0660%
% Label Claim (Potency) ([2]; after 120 days): 82%
Amount Found ([2]; after 120 days): 0.0618%
% Label Claim (Potency) ([2]; after 150 days): 84%
Amount Found ([2]; after 150 days): 0.0627%
% Label Claim (Potency) ([2]; after 180 days): 78%
Amount Found ([2]; after 180 days): 0.0584%
% Label Claim (Potency) ([2]; baseline): 99.6%
Amount Found ([2]; baseline): 0.0747%
Pass/Fail ([3]; after 90 days): Pass
Pass/Fail ([3]; after 180 days): Pass
Pass/Fail ([3]; after 270 days): Pass
Pass/Fail ([3]; after 300 days): Pass
Pass/Fail ([3]; after 365 days): Pass
Pass/Fail ([3]; baseline): Pass
% Label Claim ([3]; after 90 days): 101.9%
Amount Found ([3]; after 90 days): 0.07646%
% Label Claim ([3]; after 180 days): 98.6%
Amount Found ([3]; after 180 days): 0.07398%
% Label Claim ([3]; after 270 days): 92.5%
Amount Found ([3]; after 270 days): 0.06939%
% Label Claim ([3]; after 300 days): 95.5%
Amount Found ([3]; after 300 days): 0.0716%
% Label Claim ([3]; after 365 days): 91.1%
Amount Found ([3]; after 365 days): 0.06834%
% Label Claim ([3]; baseline): 100.0%
Amount Found ([3]; baseline): 0.07499%

CC(=O)OCC(=O)[C@@]1(O)CC[C@H]2[C@@H]3CCC4=CC(=O)C=C[C@]4(C)[C@H]3[C@@H](O)C[C@@]21C [Prednisolone acetate, prednisolone acetate]
Pass/Fail ([1]; after 90 days): Pass
Pass/Fail ([1]; after 120 days): Pass
Pass/Fail ([1]; after 180 days): Pass
Pass/Fail ([1]; after 210 days): Pass
Pass/Fail ([1]; after 270 days): Pass
Pass/Fail ([1]; baseline): Pass
% Label Claim ([1]; after 90 days): 99.2%
Amount Found ([1]; after 90 days): 0.9915%
% Label Claim ([1]; after 120 days): 103.5%
Amount Found ([1]; after 120 days): 1.035%
% Label Claim ([1]; after 180 days): 105.6%
Amount Found ([1]; after 180 days): 1.056%
% Label Claim ([1]; after 210 days): 106.5%
Amount Found ([1]; after 210 days): 1.065%
% Label Claim ([1]; after 270 days): 103.6%
Amount Found ([1]; after 270 days): 1.036%
% Label Claim ([1]; baseline): 100.0%
Amount Found ([1]; baseline): 1.000%
Pass/Fail ([2]; after 30 days): Pass
Pass/Fail ([2]; after 60 days): Pass
Pass/Fail ([2]; after 90 days): Pass
Pass/Fail ([2]; after 120 days): Pass
Pass/Fail ([2]; after 150 days): Pass
Pass/Fail ([2]; after 180 days): Pass
Pass/Fail ([2]; baseline): Pass
% Label Claim (Potency) ([2]; after 30 days): 97.8%
Amount Found ([2]; after 30 days): 0.978%
% Label Claim (Potency) ([2]; after 60 days): 90.0%
Amount Found ([2]; after 60 days): 0.9001%
% Label Claim (Potency) ([2]; after 90 days): 99%
Amount Found ([2]; after 90 days): 0.9885%
% Label Claim (Potency) ([2]; after 120 days): 95%
Amount Found ([2]; after 120 days): 0.9505%
% Label Claim (Potency) ([2]; after 150 days): 93%
Amount Found ([2]; after 150 days): 0.926%
% Label Claim (Potency) ([2]; after 180 days): 91%
Amount Found ([2]; after 180 days): 0.907%
% Label Claim (Potency) ([2]; baseline): 98.4%
Amount Found ([2]; baseline): 0.984%
Pass/Fail ([3]; after 90 days): Pass
Pass/Fail ([3]; after 180 days): Pass
Pass/Fail ([3]; after 270 days): Pass
Pass/Fail ([3]; after 300 days): Pass
Pass/Fail ([3]; after 365 days): Pass
Pass/Fail ([3]; baseline): Pass
% Label Claim ([3]; after 90 days): 98.0%
Amount Found ([3]; after 90 days): 0.9805%
% Label Claim ([3]; after 180 days): 98.8%
Amount Found ([3]; after 180 days): 0.9883%
% Label Claim ([3]; after 270 days): 97.4%
Amount Found ([3]; after 270 days): 0.9743%
% Label Claim ([3]; after 300 days): 99.5%
Amount Found ([3]; after 300 days): 0.9954%
% Label Claim ([3]; after 365 days): 99.6%
Amount Found ([3]; after 365 days): 0.9960%
% Label Claim ([3]; baseline): 102.4%
Amount Found ([3]; baseline): 1.024%
